Test results published in ChEMBL document CHEMBL1201862, “PubChem BioAssay data set” (2004).
Activity calls are given as the source filed them.

Legend:
[1] = biological target: Peroxisome proliferator-activated receptor gamma/Nuclear receptor coactivator 3 (Homo sapiens, UniProt P37231); experiment: TR-FRET dose response biochemical High Throughput Screening assay for agonists of the steroid receptor coactivator 3 (SRC-3) recruitment by the peroxisome proliferator-activated receptor gamma (PPAR gamma): non-selective agonists. [Related pubchem assays: 1301 (Confirmation screen.), 1048 (Primary screen.)]; assay type: functional
[2] = biological target: Neuropeptide Y receptor type 2 (Homo sapiens, UniProt P49146); experiment: Fluorescence-based cell-based high-throughput dose response assay for agonists of NPY-Y2. [Related pubchem assays: 1703 (Screening assay (CNGC inhibitors).), 1359 (Screening assay (NPY-Y2 potentiators or agonists).), 1304 (Screening assay (NPY-Y1 potentiators or agonists).), 1710 (Screening assay (NPY-Y2 agonists).), 1791 (Summary AID.)]; assay type: functional
[3] = biological target: Peroxisome proliferator-activated receptor gamma/Nuclear receptor coactivator 2 (Homo sapiens, UniProt P37231); experiment: (§1) TR-FRET dose response biochemical High Throughput Screening assay for agonists of the steroid receptor coactivator 2 (SRC-2) recruitment by the peroxisome proliferator-activated receptor gamma (PPAR gamma): non-selective agonists. [Related pubchem assays: 1297, 1032 ]; assay type: functional
[4] = biological target: Peroxisome proliferator-activated receptor gamma/Nuclear receptor coactivator 1 (Homo sapiens, UniProt P37231); experiment: as §1, with “1 (SRC-1)” for “2 (SRC-2)”, “assays (depositor defined):AID1300, AID1808, AID504735, AID631]” for “assays: 1297, 1032 ]”; assay type: protein assay
HEK293 = experiment: Fluorescence-based counterscreen for potentiators or agonists of NPY-Y2: cell-based high-throughput dose response assay to identify inhibitors of cyclic nucleotide gated ion channel (CNGC) activity. In this assay, the parental HEK293 cell line transfected with a cyclic-nucleotide gated ion channel (CNGC)-based cAMP sensor is used to measure inhibition of isoproterenol-induced CNGC activity by test compound.; assay type: functional; conditions: Homo sapiens;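 further: stimulus is 1 µM isoproterenol at EC100 plus PDE inhibitor Ro 20-1724 at 25 µM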
[5] = biological target: Neuropeptide Y receptor type 1 (Homo sapiens, UniProt P25929); experiment: Fluorescence-based counterscreen for agonists of NPY-Y2: cell-based high-throughput dose response assay for agonists of NPY-Y1.; assay type: functional
[6] = biological target: Serine/threonine-protein phosphatase PP1-alpha catalytic subunit (Homo sapiens, UniProt P62136); experiment: PP1 phosphatase inhibitors, dose response, biochemical, fluorescence (AID 2403);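 further: phosphatase turnover of OMFP into fluorescent 3-O-methylfluorescein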
[7] = biological target: Serine/threonine-protein phosphatase (Homo sapiens, UniProt Q9BPW0); experiment: Counterscreen for inhibitors of PP1: fluorescence-based biochemical high throughput dose response assay to identify inhibitors of Protein Phosphatase 5 (PP5). [Related pubchem assays: 2034 (Summary (PP5 inhibitors)), 1987 (PP5 inhibitors in singlate), 2235 (PP1 inhibitors in singlate)]
Vero = Vero cell cytotoxicity, cytotoxicity control for flavivirus capping enzyme inhibitors (AID 588742); assay type: functional; conditions: Chlorocebus sabaeus
[8] = biological target: T1, Polyadenylate-binding protein 1 (Homo sapiens, UniProt P11940); experiment: PABP1 MLLE–PAM2 binding inhibitor potency, dose response, biochemical, fluorescence polarization, FITC-PAM2 peptide (AID 602259); assay type: functional; conditions: read-out: IC50_Mean
[9] = NIH-3T3 fibroblast cytotoxicity, dose response, cytotoxicity control, cell-based, fluorescence, Alamar Blue, secondary assay (AID 2327); assay type: functional;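 further: NIH-3T3 mouse fibroblasts cultured with fluconazole at 8 µg/mL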
[10] = C. albicans growth with fluconazole, confirmation, fluorescence, retest (AID 2467); assay type: functional, cell-based
[11] = biological target: Heat shock protein HSP 90-alpha (Homo sapiens, UniProt P07900); assay type: functional, organism-based
[12] = biological target: Ras and Rab interactor 1/Tyrosine-protein kinase ABL1 (Homo sapiens, UniProt P00519+Q13671); assay type: functional;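 further: biochemical TR-FRET dose-response test measuring inhibition of binding between Rin1 and Abl proteins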
Genome polyprotein = Genome polyprotein (dengue virus type 2, UniProt P29990); experiment: Dengue-2 NS5 methyltransferase inhibitors, primary screen, biochemical, confirmation dose response (AID 588689); assay type: functional
[13] = biological target: T1, Polyadenylate-binding protein 1; experiment: PABP1 MLLE–PAM2 interaction inhibitors, dose response, miRNA deadenylation inhibitor project, biochemical, fluorescence polarization, Cy5-PAM2 peptide, secondary (AID 602260); assay type: functional; conditions: read-out: IC50_Mean
Insulin-degrading enzyme = biological target: T2, Insulin-degrading enzyme (Homo sapiens, UniProt P14735); experiment: Dose Response: Fluorescence polarization-based cell-based high throughput dose response assay for inhibitors of insulin-degrading enzyme (IDE). [Related pubchem assays: 434962 (Primary screen (IDE inhibitors in singlicate)), 449730 (Counterscreen (Cytotoxicity in triplicate)), 435028 (Confirmation (IDE inhibitors in triplicate)), 434984 (Summary …; assay type: functional
T2 sequence (P14735 whole entry): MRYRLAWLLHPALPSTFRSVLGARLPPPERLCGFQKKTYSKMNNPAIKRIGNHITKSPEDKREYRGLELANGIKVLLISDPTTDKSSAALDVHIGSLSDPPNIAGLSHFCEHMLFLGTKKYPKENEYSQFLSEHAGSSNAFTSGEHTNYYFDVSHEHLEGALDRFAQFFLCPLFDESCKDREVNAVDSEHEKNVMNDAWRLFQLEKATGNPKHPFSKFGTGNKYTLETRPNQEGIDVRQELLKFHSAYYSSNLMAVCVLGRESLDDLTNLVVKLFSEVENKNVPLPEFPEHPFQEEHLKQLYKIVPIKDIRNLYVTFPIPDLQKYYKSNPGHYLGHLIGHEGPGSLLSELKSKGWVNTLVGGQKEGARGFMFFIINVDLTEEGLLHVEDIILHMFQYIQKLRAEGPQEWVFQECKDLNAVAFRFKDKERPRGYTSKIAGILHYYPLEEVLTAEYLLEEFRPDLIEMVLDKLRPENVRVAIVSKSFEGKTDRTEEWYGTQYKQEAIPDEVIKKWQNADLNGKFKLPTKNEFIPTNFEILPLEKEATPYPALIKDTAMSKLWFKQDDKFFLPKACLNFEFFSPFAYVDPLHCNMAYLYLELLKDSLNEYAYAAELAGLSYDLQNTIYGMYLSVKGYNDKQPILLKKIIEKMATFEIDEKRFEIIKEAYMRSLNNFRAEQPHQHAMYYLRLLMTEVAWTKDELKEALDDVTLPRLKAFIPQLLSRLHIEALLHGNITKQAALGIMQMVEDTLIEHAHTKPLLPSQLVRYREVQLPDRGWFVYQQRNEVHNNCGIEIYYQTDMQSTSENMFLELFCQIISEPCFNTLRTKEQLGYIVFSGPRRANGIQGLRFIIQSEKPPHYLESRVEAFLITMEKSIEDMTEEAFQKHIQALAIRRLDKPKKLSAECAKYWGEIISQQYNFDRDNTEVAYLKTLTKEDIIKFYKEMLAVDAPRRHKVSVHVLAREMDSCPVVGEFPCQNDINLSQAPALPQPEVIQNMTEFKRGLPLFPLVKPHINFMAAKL

[14] = Counterscreen for IDE inhibitors: Luminescence-based cell-based high throughput dose response assay to identify compounds that are cytotoxic to HEK cells. [Related pubchem assays: 434962 (Primary screen (IDE inhibitors in singlicate)), 449730 (Counterscreen (Cytotoxicity in triplicate)), 435028 (Confirmation (IDE inhibitors in triplicate)) …; assay type: functional; conditions: HEK293

T1 sequence (P11940 whole entry): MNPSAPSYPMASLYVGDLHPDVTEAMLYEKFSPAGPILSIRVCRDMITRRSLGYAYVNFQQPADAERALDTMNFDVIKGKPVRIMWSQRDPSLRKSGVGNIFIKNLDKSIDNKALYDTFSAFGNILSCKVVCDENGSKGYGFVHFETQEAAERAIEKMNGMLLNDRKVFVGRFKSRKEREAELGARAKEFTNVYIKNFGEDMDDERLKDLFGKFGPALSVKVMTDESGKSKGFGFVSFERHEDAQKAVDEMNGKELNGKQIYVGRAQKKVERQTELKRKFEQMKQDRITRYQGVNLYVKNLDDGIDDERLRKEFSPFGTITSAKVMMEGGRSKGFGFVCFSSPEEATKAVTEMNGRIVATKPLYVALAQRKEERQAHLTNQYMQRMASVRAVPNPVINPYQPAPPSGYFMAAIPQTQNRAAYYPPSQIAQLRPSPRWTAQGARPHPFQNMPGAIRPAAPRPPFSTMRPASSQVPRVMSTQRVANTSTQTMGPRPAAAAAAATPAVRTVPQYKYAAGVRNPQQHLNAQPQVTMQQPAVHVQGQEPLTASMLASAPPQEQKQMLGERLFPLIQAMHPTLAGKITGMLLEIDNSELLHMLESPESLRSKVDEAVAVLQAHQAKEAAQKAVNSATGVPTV
Chain of Peroxisome proliferator-activated receptor gamma/Nuclear receptor coactivator 3 (P37231 whole entry): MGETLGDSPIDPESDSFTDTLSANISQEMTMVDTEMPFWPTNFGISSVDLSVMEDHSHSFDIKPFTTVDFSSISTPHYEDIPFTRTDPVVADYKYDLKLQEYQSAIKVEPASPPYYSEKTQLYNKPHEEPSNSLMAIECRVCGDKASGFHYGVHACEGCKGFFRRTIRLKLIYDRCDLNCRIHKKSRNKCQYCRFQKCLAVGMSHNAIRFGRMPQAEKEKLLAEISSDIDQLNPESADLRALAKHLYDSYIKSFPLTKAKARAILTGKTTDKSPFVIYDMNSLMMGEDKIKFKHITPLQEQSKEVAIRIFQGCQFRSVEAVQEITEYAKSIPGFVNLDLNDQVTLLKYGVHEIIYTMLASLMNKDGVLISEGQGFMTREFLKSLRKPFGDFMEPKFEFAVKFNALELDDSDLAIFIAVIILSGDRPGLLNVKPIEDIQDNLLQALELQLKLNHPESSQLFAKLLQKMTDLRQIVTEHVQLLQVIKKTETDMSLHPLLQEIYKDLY
Chain of Peroxisome proliferator-activated receptor gamma/Nuclear receptor coactivator 3 (Q9Y6Q9 whole entry, further chain): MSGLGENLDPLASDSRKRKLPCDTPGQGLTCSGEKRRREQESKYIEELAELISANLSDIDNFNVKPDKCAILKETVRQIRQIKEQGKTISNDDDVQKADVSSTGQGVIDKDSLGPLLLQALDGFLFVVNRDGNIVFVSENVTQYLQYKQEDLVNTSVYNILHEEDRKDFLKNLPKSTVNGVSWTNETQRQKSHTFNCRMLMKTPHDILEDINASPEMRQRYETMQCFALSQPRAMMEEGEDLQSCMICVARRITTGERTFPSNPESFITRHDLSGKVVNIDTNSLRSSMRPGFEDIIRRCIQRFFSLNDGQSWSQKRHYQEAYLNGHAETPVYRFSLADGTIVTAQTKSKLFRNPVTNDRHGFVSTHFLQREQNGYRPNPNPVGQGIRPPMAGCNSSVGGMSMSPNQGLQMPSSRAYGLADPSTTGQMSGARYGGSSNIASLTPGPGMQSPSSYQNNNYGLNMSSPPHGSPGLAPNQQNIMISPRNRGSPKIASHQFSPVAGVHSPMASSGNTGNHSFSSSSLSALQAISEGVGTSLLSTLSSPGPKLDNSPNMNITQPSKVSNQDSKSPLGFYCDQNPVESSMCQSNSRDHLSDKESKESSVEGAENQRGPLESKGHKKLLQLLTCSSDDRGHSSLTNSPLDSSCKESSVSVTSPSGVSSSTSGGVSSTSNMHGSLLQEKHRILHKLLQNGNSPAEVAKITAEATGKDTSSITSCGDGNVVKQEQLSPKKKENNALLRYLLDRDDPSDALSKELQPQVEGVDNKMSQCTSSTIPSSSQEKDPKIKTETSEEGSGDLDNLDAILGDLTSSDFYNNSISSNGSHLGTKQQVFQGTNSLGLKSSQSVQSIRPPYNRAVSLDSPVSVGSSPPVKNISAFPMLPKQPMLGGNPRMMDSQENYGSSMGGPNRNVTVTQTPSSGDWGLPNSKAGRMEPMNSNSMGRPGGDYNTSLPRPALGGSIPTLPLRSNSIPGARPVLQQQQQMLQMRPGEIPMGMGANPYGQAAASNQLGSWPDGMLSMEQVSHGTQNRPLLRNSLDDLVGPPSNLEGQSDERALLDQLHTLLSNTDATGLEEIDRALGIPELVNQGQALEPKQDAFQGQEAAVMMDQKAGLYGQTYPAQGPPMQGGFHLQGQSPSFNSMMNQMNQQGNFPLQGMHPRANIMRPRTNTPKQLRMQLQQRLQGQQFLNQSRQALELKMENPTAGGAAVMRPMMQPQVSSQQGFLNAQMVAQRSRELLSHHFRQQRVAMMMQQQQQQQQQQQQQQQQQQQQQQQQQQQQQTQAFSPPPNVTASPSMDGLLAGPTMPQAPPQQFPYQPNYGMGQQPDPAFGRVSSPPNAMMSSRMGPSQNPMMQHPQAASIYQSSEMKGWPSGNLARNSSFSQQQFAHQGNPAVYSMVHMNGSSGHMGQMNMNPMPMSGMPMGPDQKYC
Chain of Peroxisome proliferator-activated receptor gamma/Nuclear receptor coactivator 2 (P37231 whole entry): as the sequence (P37231 whole entry) above
Chain of Peroxisome proliferator-activated receptor gamma/Nuclear receptor coactivator 2 (Q15596 whole entry, further chain): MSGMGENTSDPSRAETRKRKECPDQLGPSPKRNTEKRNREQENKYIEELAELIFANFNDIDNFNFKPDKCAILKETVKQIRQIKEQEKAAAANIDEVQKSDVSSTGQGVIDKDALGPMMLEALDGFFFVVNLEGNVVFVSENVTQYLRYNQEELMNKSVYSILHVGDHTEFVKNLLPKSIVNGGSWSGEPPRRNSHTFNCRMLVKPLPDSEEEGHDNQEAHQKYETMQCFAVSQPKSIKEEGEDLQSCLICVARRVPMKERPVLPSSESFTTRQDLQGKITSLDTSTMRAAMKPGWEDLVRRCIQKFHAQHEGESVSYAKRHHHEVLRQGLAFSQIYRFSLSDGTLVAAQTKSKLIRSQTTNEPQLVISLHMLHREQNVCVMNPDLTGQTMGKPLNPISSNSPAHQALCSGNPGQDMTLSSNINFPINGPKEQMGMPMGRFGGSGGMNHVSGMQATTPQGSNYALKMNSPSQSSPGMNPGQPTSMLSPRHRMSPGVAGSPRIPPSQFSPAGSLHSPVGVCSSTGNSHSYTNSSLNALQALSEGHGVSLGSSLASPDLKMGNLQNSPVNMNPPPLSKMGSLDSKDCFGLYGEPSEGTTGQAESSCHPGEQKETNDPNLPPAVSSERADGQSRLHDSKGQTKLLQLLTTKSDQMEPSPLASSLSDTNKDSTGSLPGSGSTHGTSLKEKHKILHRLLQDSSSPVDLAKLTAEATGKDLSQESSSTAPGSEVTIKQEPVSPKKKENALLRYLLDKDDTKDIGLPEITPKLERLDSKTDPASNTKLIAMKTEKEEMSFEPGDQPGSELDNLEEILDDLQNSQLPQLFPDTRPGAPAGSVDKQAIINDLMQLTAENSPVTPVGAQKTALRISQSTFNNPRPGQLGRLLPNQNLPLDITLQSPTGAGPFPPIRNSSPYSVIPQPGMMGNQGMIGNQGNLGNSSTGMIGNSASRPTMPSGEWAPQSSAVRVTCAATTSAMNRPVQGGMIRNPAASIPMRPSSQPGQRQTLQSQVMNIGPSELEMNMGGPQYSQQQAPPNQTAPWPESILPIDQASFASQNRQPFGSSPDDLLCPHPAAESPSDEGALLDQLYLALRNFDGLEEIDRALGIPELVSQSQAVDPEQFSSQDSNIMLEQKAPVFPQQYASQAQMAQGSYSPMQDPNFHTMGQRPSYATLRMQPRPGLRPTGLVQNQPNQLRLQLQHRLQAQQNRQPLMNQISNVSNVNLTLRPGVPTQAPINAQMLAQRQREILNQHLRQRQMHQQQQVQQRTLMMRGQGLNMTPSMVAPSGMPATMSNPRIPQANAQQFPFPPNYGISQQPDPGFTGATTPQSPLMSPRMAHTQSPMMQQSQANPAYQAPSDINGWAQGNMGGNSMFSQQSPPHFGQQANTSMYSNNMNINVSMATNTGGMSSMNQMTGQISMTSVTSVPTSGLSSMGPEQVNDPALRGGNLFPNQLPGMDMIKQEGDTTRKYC
Chain of Neuropeptide Y receptor type 1 (P25929 whole entry): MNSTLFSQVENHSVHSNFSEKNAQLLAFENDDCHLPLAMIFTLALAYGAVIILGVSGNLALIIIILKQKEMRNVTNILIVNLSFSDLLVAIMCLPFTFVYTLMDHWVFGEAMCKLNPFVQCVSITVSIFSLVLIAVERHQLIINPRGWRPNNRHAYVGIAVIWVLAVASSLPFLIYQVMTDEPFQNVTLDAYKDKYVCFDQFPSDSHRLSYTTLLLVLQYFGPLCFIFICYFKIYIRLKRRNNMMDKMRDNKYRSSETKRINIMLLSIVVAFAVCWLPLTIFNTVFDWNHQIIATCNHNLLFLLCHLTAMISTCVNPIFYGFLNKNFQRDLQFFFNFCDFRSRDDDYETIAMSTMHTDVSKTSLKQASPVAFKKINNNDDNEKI

In the case of `CC(C)OC(=O)C(C)Nc1nnc(S)nc1O` (stereo not drawn), the EC50 [1] is reported as 35.1 µM (not active), the EC50 [2] is reported as > 35.4 µM (not active) and the EC50 [3] is reported as 4.97 µM (active). For the same compound, the EC50 [4] was 4.26 µM (active), the EC50 (HEK293) was > 35.4 µM (not active) and the EC50 [5] was > 35.4 µM (not active).

In the case of `CN1CCN(C(c2ccccn2)c2cc(Cl)c3cccnc3c2O)CC1` (stereo not drawn), the IC50 [6] is reported as 4.17 µM (active), the IC50 [7] is reported as 47.6 µM (not active) and the CC50 (Vero) is reported as 37.2 µM (active). The IC50 [8] was > 66 µM (inactive), the EC50 [9] was 24.9 µM (active) and the EC50 [10] was 1.42 µM (active). The AC50 [11] was 6.54 µM (active), the IC50 [12] was > 73.5 µM (inactive) and the IC50 (Genome polyprotein) was > 100 µM (active). For the same compound, the IC50 [13] was > 66 µM (inactive).

In the case of `COC(=O)C1=C(C)N=c2s/c(=C/c3ccoc3)c(=O)n2C1c1ccccc1` (stereo not drawn), the IC50 (Insulin-degrading enzyme) is reported as > 2.07 µM (active) and the IC50 [14] is reported as 16.3 µM (not active).
